Our source for the EC50 values is patent publication US10556914B2, “Substituted isoxazolopyridazinones and isothiazolopyridazinones and methods of use” (AbbVie Inc., priority 2015, dated 2020).

Bounds are passed on as bounds.

For the test, the target named is GABA-B receptor (Rattus norvegicus (Rat), UniProt O88871+Q9Z0U4). Description: [35S]GTPgS Binding Assay (rat brain cortex membranes, native receptor). In kind it is biochemical. Particulars: rat cortical membranes; in the presence of 1 μM GABA (EC25); basal binding 0%, maximal binding (1 mM GABA) 100%. As for the experimental part: Preparation of Rat Brain Membranes for Native Receptor Assays
Chain of GABA-B receptor (Q9Z0U4 17-960): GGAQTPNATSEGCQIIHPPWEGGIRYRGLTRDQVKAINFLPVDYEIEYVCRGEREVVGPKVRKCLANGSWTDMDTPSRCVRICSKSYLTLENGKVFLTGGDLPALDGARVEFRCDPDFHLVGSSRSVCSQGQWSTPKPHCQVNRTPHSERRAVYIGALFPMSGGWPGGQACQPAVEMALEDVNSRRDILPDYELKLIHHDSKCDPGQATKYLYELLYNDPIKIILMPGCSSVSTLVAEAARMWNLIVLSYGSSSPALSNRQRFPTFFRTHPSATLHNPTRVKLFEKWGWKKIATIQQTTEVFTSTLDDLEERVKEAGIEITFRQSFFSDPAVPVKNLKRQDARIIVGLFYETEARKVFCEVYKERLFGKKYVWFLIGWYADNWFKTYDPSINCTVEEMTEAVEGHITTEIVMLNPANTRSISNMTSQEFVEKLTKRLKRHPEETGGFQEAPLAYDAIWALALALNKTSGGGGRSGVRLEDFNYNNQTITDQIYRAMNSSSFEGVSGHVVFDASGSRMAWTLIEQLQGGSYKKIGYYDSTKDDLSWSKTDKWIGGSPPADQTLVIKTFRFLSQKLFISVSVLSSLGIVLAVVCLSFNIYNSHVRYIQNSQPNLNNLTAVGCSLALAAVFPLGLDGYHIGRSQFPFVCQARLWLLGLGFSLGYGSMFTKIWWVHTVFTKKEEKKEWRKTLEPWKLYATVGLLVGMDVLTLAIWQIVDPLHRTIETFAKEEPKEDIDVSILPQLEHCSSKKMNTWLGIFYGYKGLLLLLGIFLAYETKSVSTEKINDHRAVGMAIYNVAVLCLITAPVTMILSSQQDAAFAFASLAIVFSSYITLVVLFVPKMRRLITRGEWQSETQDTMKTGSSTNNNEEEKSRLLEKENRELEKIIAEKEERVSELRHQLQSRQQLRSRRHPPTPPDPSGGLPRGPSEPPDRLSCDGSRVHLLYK
Chain of GABA-B receptor (O88871 41-940): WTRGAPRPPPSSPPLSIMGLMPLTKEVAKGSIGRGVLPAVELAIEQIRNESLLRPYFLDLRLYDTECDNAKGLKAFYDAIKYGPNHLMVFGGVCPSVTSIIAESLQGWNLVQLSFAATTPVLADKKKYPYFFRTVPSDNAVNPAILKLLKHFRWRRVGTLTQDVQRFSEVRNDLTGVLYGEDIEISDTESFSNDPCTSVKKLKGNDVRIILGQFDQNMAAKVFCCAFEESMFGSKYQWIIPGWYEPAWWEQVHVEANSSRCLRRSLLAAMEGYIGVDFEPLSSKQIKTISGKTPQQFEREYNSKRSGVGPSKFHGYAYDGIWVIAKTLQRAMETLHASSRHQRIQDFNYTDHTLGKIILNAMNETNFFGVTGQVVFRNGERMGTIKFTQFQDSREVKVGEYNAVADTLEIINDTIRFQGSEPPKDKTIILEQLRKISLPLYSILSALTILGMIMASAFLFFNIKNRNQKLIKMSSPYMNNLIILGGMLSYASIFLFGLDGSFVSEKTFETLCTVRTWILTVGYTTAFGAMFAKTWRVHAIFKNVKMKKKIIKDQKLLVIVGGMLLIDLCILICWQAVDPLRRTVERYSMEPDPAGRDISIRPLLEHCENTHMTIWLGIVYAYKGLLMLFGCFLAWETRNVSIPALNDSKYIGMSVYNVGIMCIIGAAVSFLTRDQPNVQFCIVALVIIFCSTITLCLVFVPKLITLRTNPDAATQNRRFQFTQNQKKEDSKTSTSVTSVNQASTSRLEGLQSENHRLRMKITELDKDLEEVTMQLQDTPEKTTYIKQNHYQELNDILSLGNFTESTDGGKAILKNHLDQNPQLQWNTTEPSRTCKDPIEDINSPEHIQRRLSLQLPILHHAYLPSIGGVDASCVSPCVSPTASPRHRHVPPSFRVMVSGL
Membranes from rat brain cortex were prepared as described in detail by Olpe et al. and stored at concentrations of 1.66 mg/mL protein at −80° C. until required. (Olpe, H.-R, et al. Eur J Pharmacol 1990; 187: 27-38).
[^35S]GTPgS Binding Assay
The samples were incubated at room temperature for 60 minutes on a shaker. The incubation was stopped by rapid vacuum filtration over glass-fiber filter plates (UniFilter-96 well, GF/B membrane plates, PerkinElmer) using a 96-well plate harvester (TOMTEK© Harvester). The UniFilter plate was washed five times with ice-cold wash buffer (50 mM Tris-HCl buffer, pH 7.7, 10 mM MgCl2, and 100 mM NaCl. After filtration the plate was dried for 90 minutes at 55° C. The plates were closed on the bottom with black sealing membranes, and liquid scintillation cocktail (35 μL, Betaplate Scint, PerkinElmer) was added to each well. After sealing the top of the plate, an additional incubation step of 90 minutes at room temperature followed before measuring the plate. The amount of membrane-bound [^35S]GTPgS was measured using a 96-well plate reader (Microbeta®, PerkinElmer). Nonspecific binding was measured in the presence of unlabeled 10 μM of GTPgS (Millipore) and without GABA. Basal binding was measured in the absence of 1 μM GABA, and maximal binding was measured in the presence of GABA using 1 mM GABA concentrations.
Data analysis. The concentration-response curves of compounds of the present disclosure in the presence of EC25 of GABA-B receptor agonist were generated using the GraphPad Prism® program (GraphPad Software, San Diego, Calif.). Data was normalized using basal binding as 0% and maximal binding as 100%. The curves were fitted by nonlinear regression allowing determination of EC50 values from sigmoidal dose-response curves. Each curve was performed using triplicate sample per date point and 10 concentrations.
In general terms: GTPγS is a poorly hydrolysed GTP analogue; its binding reports G protein activation.
By EC50 is commonly meant the concentration giving half of the maximal effect. Regarding `Cc1noc2c(-c3ccc(F)c(F)c3)nn(Cc3ccc(Cl)cc3)c(=O)c12` [Example 42, 5-(4-chlorobenzyl)-7-(3,4-difluorophenyl)-3-methyl[1,2]oxazolo[4,5-d]pyridazin-4(5H)-one], the EC50 was 9640 nM. Then `COc1ccc(NC(C)=O)cc1-c1nn([C@H](C)c2ccc(Cl)cc2)c(=O)c2c(C)noc12` [Example 40, N-(3-{5-[(1R)-1-(4-chlorophenyl)ethyl]-3-methyl-4-oxo-4,5-dihydro[1,2]oxazolo[4,5-d]pyridazin-7-yl}-4-methoxyphenyl)acetamide], with more than 10000 nM.

`CNC(=O)c1ccc(OC)c(-c2nn(C(C)c3ccc(Cl)cc3)c(=O)c3c(C)noc23)c1` (stereo not shown) [Example 119, 3-{5-[1-(4-chlorophenyl)ethyl]-3-methyl-4-oxo-4,5-dihydro[1,2]oxazolo[4,5-d]pyridazin-7-yl}-4-methoxy-N-methylbenzamide]: the EC50 was 56 nM.

Take `CC(=O)Nc1cccc(-c2nn(Cc3ccc(Cl)cc3)c(=O)c3c(C4CC4)noc23)c1` [Example 51, N-{3-[5-(4-chlorobenzyl)-3-cyclopropyl-4-oxo-4,5-dihydro[1,2]oxazolo[4,5-d]pyridazin-7-yl]phenyl}acetamide]: the EC50 amounted to 1500 nM. Turning to `CC(=O)Nc1cccc(-c2nn([C@H](C)c3ccc(Cl)cc3)c(=O)c3c(C)noc23)c1` [Example 34, N-(3-{5-[(1R)-1-(4-chlorophenyl)ethyl]-3-methyl-4-oxo-4,5-dihydro[1,2]oxazolo[4,5-d]pyridazin-7-yl}phenyl)acetamide], the EC50 was 4810 nM. In the case of `Cc1noc2c(-c3cc(C(F)(F)F)ccc3N)nn(C(C)c3ccc(Cl)cc3)c(=O)c12` (stereo not shown) [Example 11, 7-[2-amino-5-(trifluoromethyl)phenyl]-5-[1-(4-chlorophenyl)ethyl]-3-methyl[1,2]oxazolo[4,5-d]pyridazin-4(5H)-one] it was more than 10000 nM; in that of `COc1ccc(NS(C)(=O)=O)cc1-c1nn(C(C)c2ccc(Cl)cc2)c(=O)c2c(C)noc12` (stereo not shown) [Example 55, N-(3-{5-[1-(4-chlorophenyl)ethyl]-3-methyl-4-oxo-4,5-dihydro[1,2]oxazolo[4,5-d]pyridazin-7-yl}-4-methoxyphenyl)methanesulfonamide], 80 nM. In the case of `COc1ccc(C(=O)N2CCCC2)cc1-c1nn(C(C)c2ccc(Cl)cc2)c(=O)c2c(C)noc12` (stereo not shown) [Example 98, 5-[1-(4-chlorophenyl)ethyl]-7-[2-methoxy-5-(pyrrolidin-1-ylcarbonyl)phenyl]-3-methyl[1,2]oxazolo[4,5-d]pyridazin-4(5H)-one] it was 450 nM; in that of “7-(4-fluorophenyl)-3-methyl-5-(pyridin-4-ylmethyl)[1,2]oxazolo[4,5-d]pyridazin-4(5H)-one [Example 74]”, 3410 nM; in that of `CCn1nccc1-c1nn(C(C)c2ccc(Cl)cc2)c(=O)c2c(C)noc12` (stereo not shown) [Example 115, 5-[1-(4-chlorophenyl)ethyl]-7-(1-ethyl-1H-pyrazol-5-yl)-3-methyl[1,2]oxazolo[4,5-d]pyridazin-4(5H)-one], 4120 nM. Then `COc1ccc(NC(C)=O)cc1-c1nn(Cc2ccc(Cl)cc2)c(=O)c2c(C)noc12` [Example 45, N-{3-[5-(4-chlorobenzyl)-3-methyl-4-oxo-4,5-dihydro[1,2]oxazolo[4,5-d]pyridazin-7-yl]-4-methoxyphenyl}acetamide], with 376 nM; and `Cc1noc2c(-c3cccc(N)c3C(N)=O)nn(C(C)c3ccc(Cl)cc3)c(=O)c12` (stereo not shown) [Example 65, 2-amino-6-{5-[1-(4-chlorophenyl)ethyl]-3-methyl-4-oxo-4,5-dihydro[1,2]oxazxazolo[4,5-d]pyridazin-7-yl}benzamide], with 1850 nM; and `Cc1noc2c(-c3ccccc3N)nn(C(C)c3ccc(Cl)cc3)c(=O)c12` (stereo not shown) [Example 14, 7-(2-aminophenyl)-5-[1-(4-chlorophenyl)ethyl]-3-methyl[1,2]oxazolo[4,5-d]pyridazin-4(5H)-one], with 2130 nM. For the compound `CCc1nn([C@H](c2ccccc2)c2ccc(Cl)cc2)c(=O)c2c(CC)noc12` (single isomer, unassigned) [Example 75], the EC50 amounted to 1760 nM.

For `COc1ccc(-c2nn(Cc3ccc(Cl)cc3)c(=O)c3c(C)noc23)cc1` [Example 2, 5-(4-chlorobenzyl)-7-(4-methoxyphenyl)-3-methyl[1,2]oxazolo[4,5-d]pyridazin-4(5H)-one], the EC50 was more than 10000 nM. Then `CCc1nn([C@@H](c2ccccc2)c2ccc(Cl)cc2)c(=O)c2c(CC)noc12` (single isomer, unassigned) [Example 89], with 1390 nM. In the case of `CC(=O)Nc1ccc(C)c(-c2nn(Cc3ccc(C(F)(F)F)cc3)c(=O)c3c(C)noc23)c1` [Example 107, N-(4-methyl-3-{3-methyl-4-oxo-5-[4-(trifluoromethyl)benzyl]-4,5-dihydro[1,2]oxazolo[4,5-d]pyridazin-7-yl}phenyl)acetamide] it was 1470 nM; in that of `CCCc1noc2c(-c3cc(OC)ccc3OC)nn(Cc3ccc(Cl)cc3)c(=O)c12` [Example 52, 5-(4-chlorobenzyl)-7-(2,5-dimethoxyphenyl)-3-propyl[1,2]oxazolo[4,5-d]pyridazin-4(5H)-one], more than 10000 nM; in that of `CC(=O)Nc1ccc(C)c(-c2nn(C(C)c3ccc(Cl)cc3)c(=O)c3c(C)noc23)c1` (stereo not shown) [Example 18, N-(3-{5-[1-(4-chlorophenyl)ethyl]-3-methyl-4-oxo-4,5-dihydro[1,2]oxazolo[4,5-d]pyridazin-7-yl}-4-methylphenyl)acetamide], 389 nM. In the case of `COc1ccc(F)cc1-c1nn(C(C)c2ccc(Cl)cc2)c(=O)c2c(C)noc12` (stereo not shown) [Example 63, 5-[1-(4-chlorophenyl)ethyl]-7-(5-fluoro-2-methoxyphenyl)-3-methyl[1,2]oxazolo[4,5-d]pyridazin-4(5H)-one] it was 491 nM; in that of `CCc1noc2c(-c3cc(OC)ccc3OC)nn(Cc3ccc(Cl)cc3)c(=O)c12` [Example 36, 5-(4-chlorobenzyl)-7-(2,5-dimethoxyphenyl)-3-ethyl[1,2]oxazolo[4,5-d]pyridazin-4(5H)-one], 895 nM; in that of `Cc1noc2c(-c3cccc(C(N)=O)c3)nn(C(C)c3ccc(Cl)cc3)c(=O)c12` (stereo not shown) [Example 106, 3-{5-[1-(4-chlorophenyl)ethyl]-3-methyl-4-oxo-4,5-dihydro[1,2]oxazolo[4,5-d]pyridazin-7-yl}benzamide], 847 nM. As for `COc1ccccc1-c1nn(Cc2ccc(C(F)(F)F)cc2)c(=O)c2c(C)noc12` [Example 118, 7-(2-methoxyphenyl)-3-methyl-5-[4-(trifluoromethyl)benzyl][1,2]oxazolo[4,5-d]pyridazin-4(5H)-one], the EC50 amounted to 2930 nM. Then `COc1ccc(-c2nn(Cc3ccc(F)c(C(F)(F)F)c3)c(=O)c3c(C)noc23)c(OC)c1` [Example 37, 7-(2,4-dimethoxyphenyl)-5-[4-fluoro-3-(trifluoromethyl)benzyl]-3-methyl[1,2]oxazolo[4,5-d]pyridazin-4(5H)-one], with 3670 nM; and `COc1ccccc1-c1nn(Cc2ccc(OC)c(C(F)(F)F)c2)c(=O)c2c(C)noc12` [Example 101, 7-(2-methoxyphenyl)-5-[4-methoxy-3-(trifluoromethyl)benzyl]-3-methyl[1,2]oxazolo[4,5-d]pyridazin-4(5H)-one], with 3710 nM.

Turning to `Cc1noc2c(-c3cccnc3Cl)nn(C(C)c3ccc(Cl)cc3)c(=O)c12` (stereo not shown) [Example 7, 5-[1-(4-chlorophenyl)ethyl]-7-(2-chloropyridin-3-yl)-3-methyl[1,2]oxazolo[4,5-d]pyridazin-4(5H)-one], the EC50 was 600 nM. As to `Cc1noc2c(-c3cncnc3)nn(C(C)c3ccc(Cl)cc3)c(=O)c12` (stereo not shown) [Example 113, 5-[1-(4-chlorophenyl)ethyl]-3-methyl-7-(pyrimidin-5-yl)[1,2]oxazolo[4,5-d]pyridazin-4(5H)-one], the EC50 stood at 3840 nM. Then `Cc1noc2c(-c3cncc(F)c3)nn(C(C)c3ccc(Cl)cc3)c(=O)c12` (stereo not shown) [Example 22, 5-[1-(4-chlorophenyl)ethyl]-7-(5-fluoropyridin-3-yl)-3-methyl[1,2]oxazolo[4,5-d]pyridazin-4(5H)-one], with 2690 nM.

Take `COc1ccc(C(F)(F)F)cc1-c1nn(C(C)c2ccc(Cl)cc2)c(=O)c2c(C)noc12` (stereo not shown) [Example 79, 5-[1-(4-chlorophenyl)ethyl]-7-[2-methoxy-5-(trifluoromethyl)phenyl]-3-methyl[1,2]oxazolo[4,5-d]pyridazin-4(5H)-one]: the EC50 came to 511 nM. With `COc1ccc(C(=O)N(C)C)cc1-c1nn(C(C)c2ccc(Cl)cc2)c(=O)c2c(C)noc12` (stereo not shown) [Example 38], the EC50 was 643 nM. Then `COc1ccc(-c2nn(Cc3ccc(Cl)cc3)c(=O)c3c(C)noc23)c(OC)c1` [Example 87, 5-(4-chlorobenzyl)-7-(2,4-dimethoxyphenyl)-3-methyl[1,2]oxazolo[4,5-d]pyridazin-4(5H)-one], with 1030 nM.
